Experimental data published in patent US20130296417A1, “Theaflavin Compositions, Production, and Method to Control Physiological Disorders in Mammals” (JANGSU DEHE BIO-TECH CO., LTD., priority 2010, published 2013).

Test system: Madin-Darby canine kidney (MDCK) cells
Assay: Cytotoxicity (CC50) in MDCK cells (Example II)

O=C(O[C@@H]1Cc2c(O)cc(O)cc2O[C@@H]1c1cc(O)c(O)c(O)c1)c1cc(O)c(O)c(O)c1 [EGCG, (−)-epigallocatechin-3-gallate]
CC50: >100 µg/mL
